Reference: ChEMBL document CHEMBL1124836 (J Med Chem, 1990)

How the values were obtained:
[1] = target: T1, Adenosine receptor A1 (Rattus norvegicus, UniProt P25099); experiment: Adenosine A1 receptor binding was measured in adenosine deaminase (ADA) pretreated rat cortical membranes using [3H]cyclohexyladenosine in the presence of 2-chloroadenosine
T1 sequence (P25099 whole entry): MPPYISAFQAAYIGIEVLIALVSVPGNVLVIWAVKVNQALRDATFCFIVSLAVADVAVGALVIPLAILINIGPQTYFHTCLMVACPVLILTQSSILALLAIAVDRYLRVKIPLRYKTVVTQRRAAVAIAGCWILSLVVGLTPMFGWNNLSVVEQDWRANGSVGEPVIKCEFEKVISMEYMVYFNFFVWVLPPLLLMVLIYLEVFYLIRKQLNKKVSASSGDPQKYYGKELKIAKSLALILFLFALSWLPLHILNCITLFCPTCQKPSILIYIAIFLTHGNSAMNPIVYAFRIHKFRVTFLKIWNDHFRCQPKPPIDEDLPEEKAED

[2] = Ratio of A1-receptor binding to that of A2-receptor binding
[3] = target: Adenosine A2 receptor (Rattus norvegicus, UniProt P29276+P30543)
[4] = organism: Rattus norvegicus; experiment: Effective concentration required for 25% increase in coronary flow(CF) in perfused working heart model was determined; assay type: functional
[5] = organism: Rattus norvegicus; experiment: Effective concentration required for 25% decrease in heart rate in perfused working heart model was determined

SMILES	Ki [1]	Ratio [2]	Ki [3]	EC25 [4]	EC25 [5]
CNC(=O)[C@H]1O[C@@H](n2cnc3c(N)ncnc32)[C@H](O)[C@@H]1O	0.101 µM	–	–	–	–
CCNC(=O)[C@H]1O[C@@H](n2cnc3c(N)nc(NCc4ccccc4)nc32)[C@H](O)[C@@H]1O	8.6 µM	7.6	1.13 µM	–	–
CCNC(=O)[C@H]1O[C@@H](n2cnc3c(N)nc(NCCc4ccc(F)cc4)nc32)[C@H](O)[C@@H]1O	1.18 µM	154	0.0077 µM	–	–
Nc1nc(Nc2ccccc2)nc2c1ncn2[C@@H]1O[C@H](CO)[C@@H](O)[C@H]1O	–	–	0.071 µM	0.11 µM	> 3 µM
CCNC(=O)[C@H]1O[C@@H](n2cnc3c(N)nc(NCCc4ccc(CCC(=O)OC)cc4)nc32)[C@H](O)[C@@H]1O	1.26 µM	140	0.009 µM	–	–
CCNC(=O)[C@H]1O[C@@H](n2cnc3c(N)nc(NCCc4ccccc4)nc32)[C@H](O)[C@@H]1O	0.473 µM	–	–	0.003 µM	> 3 µM
CNC(=O)[C@H]1O[C@@H](n2cnc3c(N)nc(NCCc4ccccc4)nc32)[C@H](O)[C@@H]1O	5.35 µM	69	0.077 µM	–	–
CCNC(=O)[C@H]1O[C@@H](n2cnc3c(N)nc(NCCc4ccc(CCC(=O)O)cc4)nc32)[C@H](O)[C@@H]1O [CGS-21680]	–	–	–	0.002 µM	> 3 µM
CCNC(=O)[C@H]1O[C@@H](n2cnc3c(N)nc(NCCc4ccc(OCC(=O)O)cc4)nc32)[C@H](O)[C@@H]1O	4.25 µM	101	0.042 µM	–	–
CCNC(=O)[C@H]1OC(n2cnc3c(N)nc(NCCc4ccc(Cl)cc4)nc32)[C@H](O)[C@@H]1O (stereo partly specified)	1.51 µM	201	0.0075 µM	–	–
Nc1nc(NCCc2ccccc2)nc2c1ncn2[C@@H]1O[C@H](C(=O)NC2CC2)[C@@H](O)[C@H]1O	0.502 µM	36	0.014 µM	–	–
CCNC(=O)[C@H]1O[C@@H](n2cnc3c(N)nc(N(C)CCc4ccccc4)nc32)[C@H](O)[C@@H]1O	12.1 µM	170	0.071 µM	–	–
CC(=O)O[C@]1(C(C)=O)CC[C@H]2[C@@H]3C=C(Cl)C4=CC(=O)[C@@H]5C[C@@H]5[C@]4(C)[C@H]3CC[C@@]21C [CYPROTERONE ACETATE]	0.0013 µM	0.002	0.636 µM	–	–
CCNC(=O)[C@H]1O[C@@H](n2cnc3c(N)nc(NCCc4ccc(CC(=O)O)cc4)nc32)[C@H](O)[C@@H]1O	4.88 µM	109	0.045 µM	–	–
CCNC(=O)[C@H]1O[C@@H](n2cnc3c(N)ncnc32)[C@H](O)[C@@H]1O [NECA]	–	–	–	0.005 µM	0.06 µM
